Measured values taken from ChEMBL document CHEMBL3856255, “Synthesis and biological evaluation of Hederacolchiside A1 derivatives as anticancer agents” (Bioorg Med Chem Lett, 2016).

Experiments:
[1] = Cytotoxicity against human SKOV3 cells assessed as reduction in cell viability after 48 hrs by MTT assay; assay type: functional, cell-based; details: SK-OV-3, 48 h
[2] = Cytotoxicity against human HCT116 cells assessed as reduction in cell viability after 48 hrs by MTT assay; assay type: functional, cell-based; details: HCT-116, 48 h
[3] = Cytotoxicity against human SGC7901 cells assessed as reduction in cell viability after 48 hrs by MTT assay; assay type: functional, cell-based; details: SGC-7901, 48 h
[4] = Cytotoxicity against human U251 cells assessed as reduction in cell viability after 48 hrs by MTT assay; assay type: functional, cell-based; details: U-251, 48 h
Mus musculus [5] = assay: Toxicity in mouse assessed as death time administered as submicron emulsions through caudal vein injection dosed daily; assay type: organism-based; details: in vivo, iv
[6] = Cytotoxicity against human SMMC7721 cells assessed as reduction in cell viability after 48 hrs by MTT assay; assay type: functional, cell-based; details: SMMC-7721, 48 h
[7] = Cytotoxicity against human NCI-H460 cells assessed as reduction in cell viability after 48 hrs by MTT assay; assay type: functional, cell-based; details: NCI-H460, 48 h
[8] = Antitumor activity against H22 cells xenografted in nude mouse assessed as tumor growth inhibition at 20 mg/kg administered as submicron emulsions through caudal vein injection dosed daily for 14 days; assay type: functional; details: H22, 336 h; read-out: TGI
Mus musculus [9] = assay: Toxicity in nude mouse xenografted with […] cells assessed as body weight level at 20 mg/kg administered as submicron emulsions through caudal vein injection dosed daily for 14 days (reference value: 42.63 +/- 5.81 g); assay type: organism-based; details: in vivo, iv, 336 h
Mus musculus [10] = assay: Toxicity in nude mouse xenografted with […] cells assessed as induction of mouse mortality at 20 mg/kg administered as submicron emulsions through caudal vein injection dosed daily for 14 days; assay type: organism-based; details: in vivo, iv, 336 h
Mus musculus [11] = assay: Toxicity in nude mouse xenografted with […] cells assessed as body weight level at 10 mg/kg administered as submicron emulsions through caudal vein injection dosed daily for 14 days (reference value: 42.63 +/- 5.81 g); assay type: organism-based; details: in vivo, iv, 336 h
Mus musculus [12] = assay: Toxicity in nude mouse xenografted with […] cells assessed as induction of mouse mortality at 10 mg/kg administered as submicron emulsions through caudal vein injection dosed daily for 14 days; assay type: organism-based; details: in vivo, iv, 336 h
[13] = Antitumor activity against H22 cells xenografted in nude mouse assessed as tumor growth inhibition at 10 mg/kg administered as submicron emulsions through caudal vein injection dosed daily for 14 days; assay type: functional; details: H22, 336 h; read-out: TGI
[14] = Cytotoxicity against human U251 cells assessed as reduction in cell viability after 24 hrs by MTT assay; assay type: functional, cell-based; details: U-251, 24 h
[15] = Antitumor activity against H22 cells xenografted in nude mouse assessed as tumor growth inhibition at 6 mg/kg administered as submicron emulsions through caudal vein injection dosed every 3 days for 14 days; assay type: functional; details: read-out: TGI
[16] = Cytotoxicity against human NCI-H460 cells assessed as reduction in cell viability after 24 hrs by MTT assay; assay type: functional, cell-based; details: NCI-H460, 24 h
[17] = Cytotoxicity against human SGC7901 cells assessed as reduction in cell viability after 24 hrs by MTT assay; assay type: functional, cell-based; details: SGC-7901, 24 h
[18] = Cytotoxicity against human SMMC7721 cells assessed as reduction in cell viability after 24 hrs by MTT assay; assay type: functional, cell-based; details: SMMC-7721, 24 h
Mus musculus [19] = assay: Toxicity in nude mouse xenografted with […] cells assessed as body weight level at 6 mg/kg administered as submicron emulsions through caudal vein injection dosed every 3 days for 14 days (reference value: 42.63 +/- 5.81 g); assay type: organism-based; details: in vivo, iv
[20] = Toxicity in mouse assessed as tolerance dose administered as submicron emulsions through caudal vein injection dosed daily for 7 days; assay type: organism-based; details: in vivo, iv, read-out: Activity
[21] = Cytotoxicity against human SKOV3 cells assessed as reduction in cell viability after 24 hrs by MTT assay; assay type: functional, cell-based; details: SK-OV-3, 24 h
[22] = Cytotoxicity against human HCT116 cells assessed as reduction in cell viability after 24 hrs by MTT assay; assay type: functional, cell-based; details: HCT-116, 24 h

C[C@@H]1O[C@@H](O[C@H]2[C@H](O[C@H]3CC[C@]4(C)[C@H]5CC=C6[C@@H]7CC(C)(C)CC[C@]7(C(=O)OCC(=O)O)CC[C@@]6(C)[C@]5(C)CC[C@H]4C3(C)C)OC[C@H](O[C@@H]3O[C@H](CO)[C@@H](O)[C@H](O)[C@H]3O)[C@@H]2O)[C@H](O)[C@H](O)[C@H]1O
IC50 [1]: 2.7 µM
IC50 [2]: 3.9 µM
IC50 [3]: 3.3 µM
IC50 [4]: 2 µM
Time (Mus musculus [5]): 7 days
IC50 [6]: 2.2 µM
IC50 [7]: 1.8 µM

C[C@@H]1O[C@@H](O[C@H]2[C@H](O[C@H]3CC[C@]4(C)[C@H]5CC=C6[C@@H]7CC(C)(C)CC[C@]7(C(=O)OCCCO)CC[C@@]6(C)[C@]5(C)CC[C@H]4C3(C)C)OC[C@H](O[C@@H]3O[C@H](CO)[C@@H](O)[C@H](O)[C@H]3O)[C@@H]2O)[C@H](O)[C@H](O)[C@H]1O
IC50 [1]: > 100 µM
IC50 [2]: 39.2 µM
IC50 [3]: 47.3 µM
IC50 [4]: 43.5 µM
IC50 [6]: > 100 µM
IC50 [7]: 55.7 µM

CCOC(=O)[C@]12CCC(C)(C)C[C@H]1C1=CC[C@@H]3[C@@]4(C)CC[C@H](O[C@@H]5OC[C@H](O[C@@H]6O[C@H](CO)[C@@H](O)[C@H](O)[C@H]6O)[C@H](O)[C@H]5O[C@@H]5O[C@@H](C)[C@H](O)[C@@H](O)[C@H]5O)C(C)(C)[C@@H]4CC[C@@]3(C)[C@]1(C)CC2
IC50 [1]: 5.8 µM
IC50 [2]: 5.3 µM
IC50 [3]: 4.9 µM
IC50 [4]: 1.6 µM
IC50 [6]: 3.5 µM
IC50 [7]: 2.7 µM

C[C@@H]1O[C@@H](O[C@H]2[C@H](O[C@H]3CC[C@]4(C)[C@H]5CC=C6[C@@H]7CC(C)(C)CC[C@]7(C(=O)OCCO)CC[C@@]6(C)[C@]5(C)CC[C@H]4C3(C)C)OC[C@H](O[C@@H]3O[C@H](CO)[C@@H](O)[C@H](O)[C@H]3O)[C@@H]2O)[C@H](O)[C@H](O)[C@H]1O
IC50 [1]: 19.7 µM
IC50 [2]: 25.6 µM
IC50 [3]: 20.6 µM
IC50 [4]: 13.4 µM
IC50 [6]: 35.6 µM
IC50 [7]: 46.7 µM

C[C@@H]1O[C@@H](O[C@H]2[C@H](O[C@H]3CC[C@]4(C)[C@H]5CC=C6[C@@H]7CC(C)(C)CC[C@]7(C(=O)OCCC(=O)O)CC[C@@]6(C)[C@]5(C)CC[C@H]4C3(C)C)OC[C@H](O[C@@H]3O[C@H](CO)[C@@H](O)[C@H](O)[C@H]3O)[C@@H]2O)[C@H](O)[C@H](O)[C@H]1O
IC50 [1]: 5.4 µM
IC50 [2]: 11.1 µM
IC50 [3]: 6.5 µM
IC50 [4]: 4.6 µM
IC50 [6]: 2.7 µM
IC50 [7]: 9.8 µM

CNC(=O)[C@]12CCC(C)(C)C[C@H]1C1=CC[C@@H]3[C@@]4(C)CC[C@H](O[C@@H]5OC[C@H](O[C@@H]6O[C@H](CO)[C@@H](O)[C@H](O)[C@H]6O)[C@H](O)[C@H]5O[C@@H]5O[C@@H](C)[C@H](O)[C@@H](O)[C@H]5O)C(C)(C)[C@@H]4CC[C@@]3(C)[C@]1(C)CC2
IC50 [1]: > 100 µM
IC50 [2]: 41.9 µM
IC50 [3]: 55.8 µM
IC50 [4]: 46.7 µM
IC50 [6]: > 100 µM
IC50 [7]: > 100 µM

CCCOC(=O)[C@]12CCC(C)(C)C[C@H]1C1=CC[C@@H]3[C@@]4(C)CC[C@H](O[C@@H]5OC[C@H](O[C@@H]6O[C@H](CO)[C@@H](O)[C@H](O)[C@H]6O)[C@H](O)[C@H]5O[C@@H]5O[C@@H](C)[C@H](O)[C@@H](O)[C@H]5O)C(C)(C)[C@@H]4CC[C@@]3(C)[C@]1(C)CC2
IC50 [1]: 12.3 µM
IC50 [2]: 9.7 µM
IC50 [3]: 11.9 µM
IC50 [4]: 1.8 µM
IC50 [6]: 4.7 µM
IC50 [7]: 8.3 µM

C[C@@H]1O[C@@H](O[C@H]2[C@H](O[C@H]3CC[C@]4(C)[C@H]5CC=C6[C@@H]7CC(C)(C)CC[C@]7(C(=O)OCCCC(=O)O)CC[C@@]6(C)[C@]5(C)CC[C@H]4C3(C)C)OC[C@H](O[C@@H]3O[C@H](CO)[C@@H](O)[C@H](O)[C@H]3O)[C@@H]2O)[C@H](O)[C@H](O)[C@H]1O
IC50 [1]: 9.6 µM
IC50 [2]: 20.2 µM
IC50 [3]: 7.4 µM
IC50 [4]: 11.7 µM
IC50 [6]: 8.3 µM
IC50 [7]: 14.1 µM

COC(=O)[C@]12CCC(C)(C)C[C@H]1C1=CC[C@@H]3[C@@]4(C)CC[C@H](O[C@@H]5OC[C@H](O[C@@H]6O[C@H](CO)[C@@H](O)[C@H](O)[C@H]6O)[C@H](O)[C@H]5O[C@@H]5O[C@@H](C)[C@H](O)[C@@H](O)[C@H]5O)C(C)(C)[C@@H]4CC[C@@]3(C)[C@]1(C)CC2
inhibition in vivo at 20 mg/kg [8]: 46.8%
Activity (Mus musculus [9]): 39.74 g
IC50 [1]: 3.1 µM
Activity (Mus musculus [10]): Non-Toxic
IC50 [2]: 4.6 µM
Activity (Mus musculus [11]): 41.05 g
Activity (Mus musculus [12]): Non-Toxic
IC50 [3]: 1.7 µM
inhibition in vivo at 10 mg/kg [13]: 36.2%
IC50 [4]: 1.1 µM
Time (Mus musculus [5]): > 7 days
IC50 [6]: 3.5 µM
IC50 [7]: 1.3 µM

C[C@@H]1O[C@@H](O[C@H]2[C@H](O[C@H]3CC[C@]4(C)[C@H]5CC=C6[C@@H]7CC(C)(C)CC[C@]7(C(=O)O)CC[C@@]6(C)[C@]5(C)CC[C@H]4C3(C)C)OC[C@H](O[C@@H]3O[C@H](CO)[C@@H](O)[C@H](O)[C@H]3O)[C@@H]2O)[C@H](O)[C@H](O)[C@H]1O [HEDERACOLCHISIDE A1]
IC50 [14]: 2.2 µM
inhibition in vivo at 6 mg/kg [15]: 47.5%
IC50 [1]: 3.3 µM
IC50 [2]: 8.4 µM
IC50 [16]: 3.7 µM
IC50 [3]: 1.7 µM
IC50 [17]: 1.7 µM
IC50 [18]: 2.8 µM
IC50 [4]: 2.2 µM
Activity (Mus musculus [19]): 41.76 g
Time (Mus musculus [5]): < 0.042 days
MTD at 168 h [20]: < 8 mg/kg
IC50 [21]: 1.3 µM
IC50 [6]: 2.8 µM
IC50 [22]: 8.4 µM
IC50 [7]: 3.7 µM
